Source: paper PMC3713097 (Chemical research in toxicology, 2013)
Like-named read-outs stand apart in the source and are kept apart here.

Assays:
P450 1B1 [1] = target: T1, P450 1B1 (Homo sapiens, UniProt Q16678, L432V); experiment: Spectral binding titration with purified P450 1B1
T1 sequence (Q16678 1-543 L432V): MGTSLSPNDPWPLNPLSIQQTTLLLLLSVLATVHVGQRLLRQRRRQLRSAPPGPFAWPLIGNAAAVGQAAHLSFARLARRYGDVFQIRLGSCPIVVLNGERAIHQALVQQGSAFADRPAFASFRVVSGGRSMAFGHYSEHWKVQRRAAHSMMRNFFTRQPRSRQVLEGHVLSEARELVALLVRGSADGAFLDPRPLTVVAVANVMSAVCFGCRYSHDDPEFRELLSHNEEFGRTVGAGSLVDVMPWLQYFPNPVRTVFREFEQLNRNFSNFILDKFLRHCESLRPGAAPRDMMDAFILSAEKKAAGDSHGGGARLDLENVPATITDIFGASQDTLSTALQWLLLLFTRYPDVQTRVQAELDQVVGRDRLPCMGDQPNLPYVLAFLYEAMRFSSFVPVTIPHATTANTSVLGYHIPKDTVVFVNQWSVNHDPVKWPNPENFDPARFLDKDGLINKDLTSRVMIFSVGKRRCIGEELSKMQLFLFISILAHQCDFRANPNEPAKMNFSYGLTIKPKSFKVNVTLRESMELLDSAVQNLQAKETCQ

P450 2A6 [2] = target: T2, P450 2A6 (Homo sapiens, UniProt P11509); settings: 10 nM P450, 2.5 µM procarcinogen, means ± range of duplicate experiments
T2 sequence (P11509 1-494): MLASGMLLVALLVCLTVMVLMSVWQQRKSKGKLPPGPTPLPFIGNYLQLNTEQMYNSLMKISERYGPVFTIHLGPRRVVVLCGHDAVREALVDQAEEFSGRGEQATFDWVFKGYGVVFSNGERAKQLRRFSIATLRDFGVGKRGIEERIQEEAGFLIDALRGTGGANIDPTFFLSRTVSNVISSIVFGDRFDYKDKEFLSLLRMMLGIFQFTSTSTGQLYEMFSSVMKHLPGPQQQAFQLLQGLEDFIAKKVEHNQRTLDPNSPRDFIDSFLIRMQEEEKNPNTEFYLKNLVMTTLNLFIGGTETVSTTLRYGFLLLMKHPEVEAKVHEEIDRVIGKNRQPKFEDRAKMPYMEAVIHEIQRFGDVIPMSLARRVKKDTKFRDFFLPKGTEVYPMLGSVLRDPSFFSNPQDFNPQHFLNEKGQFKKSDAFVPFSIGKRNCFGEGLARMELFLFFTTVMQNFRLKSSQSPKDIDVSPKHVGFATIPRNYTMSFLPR

P450 1B1 [3] = target: T1, P450 1B1; settings: 10 nM P450, 2.5 µM procarcinogen, means ± range of duplicate experiments
P450 2A13 = target: T3, P450 2A13 (Homo sapiens, UniProt Q16696); experiment: Spectral binding titration with purified P450 2A13
T3 sequence (Q16696 with tags, fused parts or gaps limits assumed): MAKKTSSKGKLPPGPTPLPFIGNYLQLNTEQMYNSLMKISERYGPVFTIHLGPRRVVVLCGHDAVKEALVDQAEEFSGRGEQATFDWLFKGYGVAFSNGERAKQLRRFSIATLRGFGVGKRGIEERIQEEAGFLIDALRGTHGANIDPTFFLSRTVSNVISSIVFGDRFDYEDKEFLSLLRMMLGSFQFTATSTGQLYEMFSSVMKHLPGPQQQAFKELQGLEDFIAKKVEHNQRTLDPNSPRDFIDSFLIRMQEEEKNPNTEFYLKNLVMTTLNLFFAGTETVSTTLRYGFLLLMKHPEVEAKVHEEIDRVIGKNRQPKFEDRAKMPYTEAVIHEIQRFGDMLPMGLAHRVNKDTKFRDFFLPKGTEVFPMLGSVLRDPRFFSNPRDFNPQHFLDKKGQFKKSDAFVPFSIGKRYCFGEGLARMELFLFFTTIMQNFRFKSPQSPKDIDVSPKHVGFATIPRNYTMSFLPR

human P450 2A13 = target: T4, human P450 2A13 (Homo sapiens, UniProt Q16696); settings: 10 nM P450, 2.5 µM procarcinogen, means ± range of duplicate experiments
T4 sequence (Q16696 31-494 limits assumed): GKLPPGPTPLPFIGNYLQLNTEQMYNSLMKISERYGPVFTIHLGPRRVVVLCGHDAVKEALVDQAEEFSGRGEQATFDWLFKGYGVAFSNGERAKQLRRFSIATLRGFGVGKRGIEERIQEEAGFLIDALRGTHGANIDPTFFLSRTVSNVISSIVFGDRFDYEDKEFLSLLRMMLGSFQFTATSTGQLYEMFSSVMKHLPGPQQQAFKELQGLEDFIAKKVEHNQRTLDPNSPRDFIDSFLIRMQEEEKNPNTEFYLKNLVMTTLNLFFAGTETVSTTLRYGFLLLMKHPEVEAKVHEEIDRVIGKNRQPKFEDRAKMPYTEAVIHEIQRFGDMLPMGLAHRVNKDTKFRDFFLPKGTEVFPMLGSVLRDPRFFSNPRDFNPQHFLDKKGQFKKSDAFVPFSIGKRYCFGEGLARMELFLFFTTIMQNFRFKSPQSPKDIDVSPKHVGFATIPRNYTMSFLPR

P450 2A6 [4] = target: T2, P450 2A6; experiment: Spectral binding titration with purified P450 2A6
[5] = P450 1B1, Reverse Type I spectra
[6] = P450 1B1, Reverse Type I spectra, ± SE
[7] = P450 2A13, Type I spectra, ± SE

Compound	Kd (P450 1B1 [1])	activation of procarcinogens umu gene expression (P450 2A6 [2])	activation of procarcinogens umu gene expression (P450 1B1 [3])	Kd (P450 2A13)	activation of procarcinogens umu gene expression (human P450 2A13)	Kd (P450 2A6 [4])	further results
Cc1c2c(c(C)c3ccccc13)C(O)C(O)c1ccccc1-2 (stereo not drawn) [7,12-DMBA-5,6-diol, 5,6-dihydroxy-5,6-dihydro-7,12-dimethylbenz[a]anthracene]	38 ± 3.7 µM						ΔAmax/ Ks (P450 1B1 [1]; [5]): 0.0012; ΔAmax (P450 1B1 [1]; [6]): 0.044 ± 0.003
Cc1cc2ccccc2c2ccc3c(c12)C=CC(O)C3O (stereo not drawn) [5MeCh-1,2-diol, 1,2-dihydroxy-1,2-dihydro-5-methylchrysene]	> 20 µM	52 ± 11 units/min/nmol P450	2600 ± 180 units/min/nmol P450	> 20 µM	86 ± 15 units/min/nmol P450		
aflatoxin B1 [AFB1]							Kd (P450 2A13; read-out: Ks, pH 7.4): > 20 µM; Kd (P450 2A6 [4]; read-out: Ks, pH 7.4): > 20 µM
c1ccc2c(c1)cc1ccc3cccc4ccc2c1c34 [B[a]P, benzo[a]pyrene]	> 20 µM			> 20 µM		> 20 µM	
Cn1c(N)nc2ncc(-c3ccccc3)cc21 [PhIP, 2-amino-1-methyl-6-phenylimidazo[4,5-b]pyridine]	> 20 µM	<10 units/min/nmol P450	<10 units/min/nmol P450		<10 units/min/nmol P450		
O=[N+]([O-])c1ccc2ccc3cccc4ccc1c2c34 [1-nitropyrene]		<10 units/min/nmol P450	<10 units/min/nmol P450	0.23 ± 0.08 µM	<10 units/min/nmol P450	> 20 µM	ΔAmax/ Ks (P450 2A13; P450 2A13, Type I spectra): 0.24; ΔAmax (P450 2A13; [7]): 0.055 ± 0.004; ΔAmax/ Ks (P450 1B1 [1]; [5]): 0.026; ΔAmax (P450 1B1 [1]; [6]): 0.037 ± 0.001; Kd (P450 1B1 [1]; human, pH 7.4): 1.4 ± 0.001 µM
c1ccc2cc3c(ccc4ccccc43)cc2c1 [B[a]A, benz[a]anthracene]							Kd (P450 2A13; read-out: Ks, P450 2A13, Type I spectra, 1.0 µM P450, pH 7.4, ± SE): > 20 µM; Kd (P450 1B1 [1]; read-out: Ks, P450 1B1, Reverse Type I spectra, 1.0 µM P450, pH 7.4, ± SE): > 20 µM
OC1C=Cc2c(ccc3c2ccc2ccccc23)C1O (stereo not drawn) [chrysene-1,2-diol, 1,2-dihydroxy-1,2-dihydrochrysene]	> 20 µM	<10 units/min/nmol P450	220 ± 19 units/min/nmol P450	> 20 µM	<10 units/min/nmol P450		
Nc1ccc2c(c1)Cc1ccccc1-2 [2-AF, 2-aminofluorene]	4.6 ± 1.3 µM			> 20 µM		> 20 µM	
c1cc2c3c(cccc3c1)CC2 [acenaphthene]	> 20 µM	<10 units/min/nmol P450	<10 units/min/nmol P450	0.48 ± 0.1 µM	<10 units/min/nmol P450	1.2 ± 0.21 µM	ΔAmax/ Ks (P450 2A13; P450 2A13, Type I spectra): 0.15; ΔAmax (P450 2A13; [7]): 0.074 ± 0.005; ΔAmax/ Ks (P450 2A6 [4]; P450 2A6, Type I spectra): 0.057; ΔAmax (P450 2A6 [4]; P450 2A6, Type I spectra, ± SE): 0.068 ± 0.002; spectral interaction with P450 2A6 (Type I binding spectra) (P450 2A6 [4]; result in words): interacted
